From patent publication US12098116B2, “Crystalline prostacyclin (IP) receptor agonist and uses thereof” (United Therapeutics Corporation, priority 2022, dated 2024)
Values after ≈ are worked out from the molar mass of the structure shown. Like-named read-outs stand apart in the source and are kept apart here. Blank lines part the entries; values can stand above or below the compound they belong to.

How the values were obtained:
[1] = Solid form conversion on drying or heating, followed by XRPD; assay type: physicochemical
[2] = Solvent solubility study of ralinepag; assay type: physicochemical; details: thermodynamic from solid
Method: To prepare amorphous material for solubility testing, 330 mg of ralinepag was dissolved in 33 mL tert-butanol (with gentle heating applied via a heatgun) before being split evenly into 33 vials (˜10 mg of ralinepag per sample). […] One vial of solid was analyzed by XRPD to confirm that ralinepag had been rendered amorphous. However, as in Example 2g, a poorly crystalline Pattern 2 was observed. 32 solvents and solvent systems were added to 32×10 mg of lyophilized ralinepag in 50 μL aliquots for the first 300 μL or until complete dissolution was noted. If complete dissolution was not observed, 100 μL aliquots were added thereafter up to 1 mL total solvent. Between each addition, the mixture was manually shaken for a few seconds and if complete dissolution was not apparent, the mixture was heated to about 40° C. and checked again. Where complete dissolution occurred, the solvent was allowed to evaporate at ambient temperature. Where complete dissolution was not observed, the solids were isolated via centrifuge filtration. Recovered solids were analyzed by XRPD.

[3] = healthy volunteer population, cited from earlier work
IP receptor = IP receptor (Homo sapiens, UniProt P43119); details: head-to-head in vitro; cited from earlier work
IP receptor, sequence (P43119 whole entry): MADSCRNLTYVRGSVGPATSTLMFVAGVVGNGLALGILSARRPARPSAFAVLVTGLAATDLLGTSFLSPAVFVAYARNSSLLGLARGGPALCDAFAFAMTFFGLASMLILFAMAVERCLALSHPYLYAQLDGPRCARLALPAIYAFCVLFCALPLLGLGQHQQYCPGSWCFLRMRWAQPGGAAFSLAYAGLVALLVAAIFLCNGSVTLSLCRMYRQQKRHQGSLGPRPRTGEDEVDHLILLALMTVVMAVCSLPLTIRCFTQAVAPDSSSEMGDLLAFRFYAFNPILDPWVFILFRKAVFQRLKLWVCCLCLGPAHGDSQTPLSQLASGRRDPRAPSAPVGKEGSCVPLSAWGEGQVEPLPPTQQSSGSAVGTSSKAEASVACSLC

pulmonary artery = details: head-to-head in vitro; cited from earlier work
[4] = tested on: human pulmonary artery smooth muscle cell (PASMC); details: head-to-head in vitro; cited from earlier work
[5] = Dynamic Vapour Sorption (DVS); assay type: physicochemical
Method: Approximately, 10 mg of sample was placed into a mesh vapor sorption balance pan and loaded into a DVS-1/DVS Intrinsic/DVS Advantage dynamic vapor sorption balance by Surface Measurement Systems. The sample was subjected to a ramping profile from 40-90% relative humidity (RH) at 10% increments, maintaining the sample at each step until a stable weight had been achieved (dm/dt 0.004%, minimum step length 30 min, maximum step length 500 min) at 25° C. After completion of the sorption cycle, the sample was dried using the same procedure to 0% RH and then a second sorption cycle back to 40% RH. Two cycles were performed. The weight change during the sorption/desorption cycles were plotted, allowing for the hygroscopic nature of the sample to be determined.

[6] = cited from earlier work
[7] = cited from earlier work; remark: listed apart in the source

Solid form after drying (XRPD) ([1]; dried under vacuum at 40° C. for approximately 21 h): retained | Solid form conversion on heating ([1]; on heating): converts to Form 1
Structure (SMILES): O=C(O)COC[C@H]1CC[C@H](COC(=O)N(c2ccccc2)c2ccc(Cl)cc2)CC1 [Pattern 2]

Solid form conversion upon drying ([1]; made from NMP/water, upon drying (even with air drying)): converts to Form 1
Structure (SMILES): O=C(O)COC[C@H]1CC[C@H](COC(=O)N(c2ccccc2)c2ccc(Cl)cc2)CC1 [Pattern 4]
Solid form conversion upon drying ([1]; made from DMA/water): converts to a predominantly amorphous form with some Form 1 peaks present

solubility ([2]; aqueous with cosolvent or surfactant or cyclodextrin, solvent ethanol/water (48:52% v/v), read-out: Estimated Solubility): < 10 mg/mL | solubility ([2]; organic solvent or mixture, in 29 of the 32 solvent systems, poorly crystalline ralinepag, read-out: Solubility, summary of the screen): ≥ 10 mg/mL | solubility ([2]; organic solvent or mixture, solvent 1,1-dimethoxymethane, heated to 40° C., lyophilized poorly crystalline material, read-out: Estimated Solubility): 50 mg/mL (≈ 116 mM) | solubility ([2]; organic solvent or mixture, solvent 1,2-dichloroethene, heated to 40° C., read-out: Estimated Solubility): 200 mg/mL (≈ 463 mM) | solubility ([2]; organic solvent or mixture, solvent 1,4-dioxane, heated to 40° C., read-out: Estimated Solubility): 200 mg/mL (≈ 463 mM) | solubility ([2]; organic solvent or mixture, solvent 1-butanol, heated to 40° C., read-out: Estimated Solubility): 50 mg/mL (≈ 116 mM) | solubility ([2]; organic solvent or mixture, solvent 1-propanol, heated to 40° C., read-out: Estimated Solubility): 50 mg/mL (≈ 116 mM) | solubility ([2]; organic solvent or mixture, solvent 2-ethoxyethanol, heated to 40° C., read-out: Estimated Solubility): 200 mg/mL (≈ 463 mM) | solubility ([2]; organic solvent or mixture, solvent 2-methyl-1-propanol, heated to 40° C., read-out: Estimated Solubility): 50 mg/mL (≈ 116 mM) | solubility ([2]; organic solvent or mixture, solvent 2-methyltetrahydrofuran, read-out: Estimated Solubility): 200 mg/mL (≈ 463 mM) | solubility ([2]; organic solvent or mixture, solvent 2-propanol, heated to 40° C., read-out: Estimated Solubility): 50 mg/mL (≈ 116 mM) | solubility ([2]; organic solvent or mixture, solvent N,N-dimethylacetamide, read-out: Estimated Solubility): 200 mg/mL (≈ 463 mM) | solubility ([2]; organic solvent or mixture, solvent N,N-dimethylformamide, read-out: Estimated Solubility): 200 mg/mL (≈ 463 mM) | solubility ([2]; organic solvent or mixture, solvent N-methyl-2-pyrrolidone, read-out: Estimated Solubility): 200 mg/mL (≈ 463 mM) | solubility ([2]; organic solvent or mixture, solvent acetone, read-out: Estimated Solubility): 200 mg/mL (≈ 463 mM) | solubility ([2]; organic solvent or mixture, solvent acetonitrile, heated to 40° C., read-out: Estimated Solubility): 40 mg/mL (≈ 92.6 mM) | solubility ([2]; organic solvent or mixture, solvent anisole, read-out: Estimated Solubility): 200 mg/mL (≈ 463 mM) | solubility ([2]; organic solvent or mixture, solvent benzyl alcohol, read-out: Estimated Solubility): 200 mg/mL (≈ 463 mM) | solubility ([2]; organic solvent or mixture, solvent butyl acetate, heated to 40° C., read-out: Estimated Solubility): 50 mg/mL (≈ 116 mM) | solubility ([2]; organic solvent or mixture, solvent dimethylsulfoxide, heated to 40° C., read-out: Estimated Solubility): 200 mg/mL (≈ 463 mM) | solubility ([2]; organic solvent or mixture, solvent ethanol/water (93:7% v/v), heated to 40° C., read-out: Estimated Solubility): 100 mg/mL (≈ 232 mM) | solubility ([2]; organic solvent or mixture, solvent ethanol/water (98.5:1.5% v/v), read-out: Estimated Solubility): 100 mg/mL (≈ 232 mM) | solubility ([2]; organic solvent or mixture, solvent ethanol, heated to 40° C., read-out: Estimated Solubility): 100 mg/mL (≈ 232 mM) | solubility ([2]; organic solvent or mixture, solvent ethyl acetate, heated to 40° C., read-out: Estimated Solubility): 100 mg/mL (≈ 232 mM) | solubility ([2]; organic solvent or mixture, solvent heptane, read-out: Estimated Solubility): < 10 mg/mL | solubility ([2]; organic solvent or mixture, solvent isopropyl acetate, heated to 40° C., read-out: Estimated Solubility): 66.7 mg/mL (≈ 154 mM) | solubility ([2]; organic solvent or mixture, solvent methanol, heated to 40° C., read-out: Estimated Solubility): 200 mg/mL (≈ 463 mM) | solubility ([2]; organic solvent or mixture, solvent methylethyl ketone, heated to 40° C., read-out: Estimated Solubility): 200 mg/mL (≈ 463 mM) | solubility ([2]; organic solvent or mixture, solvent methylisobutyl ketone, heated to 40° C., read-out: Estimated Solubility): 100 mg/mL (≈ 232 mM) | solubility ([2]; organic solvent or mixture, solvent tert-butylmethyl ether, heated to 40° C., read-out: Estimated Solubility): 25 mg/mL (≈ 57.9 mM) | solubility ([2]; organic solvent or mixture, solvent tetrahydrofuran, heated to 40° C., read-out: Estimated Solubility): 200 mg/mL (≈ 463 mM) | solubility ([2]; organic solvent or mixture, solvent toluene, heated to 40° C., read-out: Estimated Solubility): 14.3 mg/mL (≈ 33.1 mM) | solubility ([2]; solvent water, read-out: Estimated Solubility): < 10 mg/mL
Structure (SMILES): O=C(O)COC[C@H]1CC[C@H](COC(=O)N(c2ccccc2)c2ccc(Cl)cc2)CC1 [ralinepag, 2-([(1r,4r)-4-(((4-chlorophenyl)(phenyl)carbamoyloxy)methyl)-cyclohexyl]methoxy)acetic acid]
Variability in plasma concentrations between doses (peak:trough ratio) ([3]; compared with selexipag): less variability | t1/2 compared with selexipag (and its active metabolite MRE-269) ([3]; single- and multiple-dose studies): longer t1/2 than selexipag | Increase of cellular cAMP levels compared with selexipag (IP receptor): more potent and efficacious than selexipag | Pulmonary artery vasodilation compared with selexipag (pulmonary artery): improved | Inhibition of human PASMC proliferation compared with selexipag [4]: better inhibition

Hygroscopic nature ([5]; DVS, 25° C.): non-hygroscopic | XRPD of the solid after DVS analysis ([5]; after DVS between 0% and 90% RH): unchanged | Reversible water uptake ([5]; between 0% and 90% RH, 25° C.): 0.1 % (w/w)
Structure (SMILES): O=C(O)COC[C@H]1CC[C@H](COC(=O)N(c2ccccc2)c2ccc(Cl)cc2)CC1 [Form 1]

Structure (SMILES): CCCCC[C@H](O)/C=C/[C@@H]1[C@H]2C/C(=C/CCCC(=O)O)O[C@H]2C[C@H]1O [epoprostenol]
Stability at room temperature [6]: unstable at room temperature

Structure (SMILES): CC(C)N(CCCCOCC(=O)NS(C)(=O)=O)c1cnc(-c2ccccc2)c(-c2ccccc2)n1 [Selexipag]
Effect on PVR ([7]; after 17 weeks of treatment): reduce PVR | Reduction in a composite morbidity and mortality endpoint ([7]; in vivo): 40%
